Test: Study 303 (BHV3000-303), Phase 3, rimegepant 75 mg ODT vs placebo, acute treatment of migraine
Type: in vivo, human
Source text: Clinical Trial—BHV3000-303: Phase 3: Double-Blind, Randomized, Placebo-Controlled, Safety and Efficacy Trial of BHV-3000 (Rimegepant) Orally Discintegrating Tablet (ODT) for the Acute Treatment of Migraine (ClinicalTrials.gov Identifier: NCT03461757) • Study Type: Interventional (Clinical Trial) • Actual Enrollment: 1812 participants • Allocation: Randomized • Intervention Model: Parallel Assignment • Masking: Triple (Participant, Care Provider, Investigator) • Primary Purpose: Treatment • Official Title: BHV3000-303: Phase 3, Double-Blind, Randomized, Placebo Controlled, Safety and Efficacy Trial of BHV-3000 (Rimegepant) Orally Disintegrating Tablet (ODT) for the Acute Treatment of Migraine • Actual Study Start Date: Feb. 27, 2018 • Actual Primary Completion Date: Oct. 8, 2018 • Actual Study Completion Date: Oct. 15, 2018 • 1. Pain freedom of rimegepant compared with placebo in the acute treatment of migraine will be measured using the number of evaluable subjects that report no pain at 2 hours post-dose. • Pain will be measured on a 4 point Likert scale (0=none, 1=mild, 2=moderate, 3=severe) • 2. Freedom from the most bothersome symptom (MBS) of rimegepant compared with placebo will be measured using the number of evaluable subjects that report the absence of their MBS at 2 hours post-dose. [Time Frame: Two Hours Post Dose] • The MBS (nausea, phonophobia or photophobia) will measured using a binary scale (0=absent, 1=present). • 1. […] [Time Frame: 2 Hours Post-Dose] • Pain Relief as measured by a 4 point numeric rating scale (None, Mild, Moderate, Severe) • 2. […] [ Time Frame: 2 hours-24 hours post-dose] • Sustained Pain Relief as measured by a 4 point numeric rating scale (None, Mild, Moderate, Severe) • 4. […] To measure rimegepant compared to placebo on the probability of requiring rescue medication will be assessed using the number of subjects that take rescue medication within […] administration of study medication (BHV3000 or placebo). […] Sustained ability to function at a normal level as measured by the Functional disability scale [Time Frame: 2 to 24 hours post dose] • Subjects self-report “normal” on the functional disability scale • 7. […] [Time Frame: 2 hours-48 hours post-dose] • Sustained Pain Relief as measured by a 4 point numeric rating scale (None, Mild, Moderate, Severe) • 8. […] Sustained ability to function at a normal level as measured by the Functional disability scale [Time Frame: 2 to 48 hours post dose] • Subjects self-report “normal” on the functional disability scale • 10. […] [Time Frame: 90 minutes post dose] • Pain Relief as measured by a 4 point numeric rating scale (None, Mild, Moderate, Severe) • 13. […] [Time Frame: 2 hours -24 hours post-dose] • Sustained Pain Freedom as measured by a 4 point numeric rating scale (None, Mild, Moderate, Severe) • 14. […]

LFTs>3×ULN, number of patients (Study 303): one
SMILES: N[C@@H]1c2cccnc2[C@H](OC(=O)N2CCC(n3c(=O)[nH]c4ncccc43)CC2)CC[C@H]1c1cccc(F)c1F [Rimegepant, [(5S,6S,9R)-5-amino-6-(2,3-difluorophenyl)-6,7,8,9-tetrahydro-5H-cyclohepta[b]pyridin-9-yl] 4-(2-oxo-3H-imidazo[4,5-b]pyridin-1-yl)piperidine-1-carboxylate]
Clinical benefit through 48 hours (pain relief, pain freedom, MBS, functional disability) vs placebo (Study 303, single dose): Lasting clinical benefit
Safety and tolerability (Study 303 vs Studies 301 and 302): consistent with the profile previously observed
Highest incidence of any single adverse event (rimegepant group, Study 303 paragraph, sentence follows mention of pooled Table 9): ≤ 1.6%

— patent US20200383969A1, “RIMEGEPANT FOR CGRP RELATED DISORDERS” (Biohaven Pharmaceutical Holding Company Ltd., priority 2018, published 2020)
